Measured values from ChEMBL document CHEMBL1201862, “PubChem BioAssay data set” (2004).
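Grown in 96-well plates, cells were treated for 48 hours with each compound at five concentrations. Insufficient inhibition: endpoint recorded as highest concentration tested. GI50 = concentration required for 50% inhibition of growth.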 Calls of active or inactive are those of the source. No stated cut-off is given here; in the data, active = GI50 up to about 1.1 µM and inactive = higher.

Key:
Assay in all cases: inhibition of tumour cell growth, NCI panel, 48 h
SF-295 = system: SF-295
PC-3 = system: PC-3
HOP-62 = system: HOP-62
UACC-257 = system: UACC-257
COLO 205 = system: COLO 205
MDA-MB-435 = system: MDA-MB-435
A498 = system: A498
MOLT-4 = system: MOLT-4
SNB-75 = system: SNB-75
SF-268 = system: SF-268
SF-539 = system: SF-539
MDA-N = system: MDA-N
K562 = system: K562
EKVX = system: EKVX
SK-MEL-2 = system: SK-MEL-2
RPMI-8226 = system: RPMI-8226
OVCAR-4 = system: OVCAR-4
SK-MEL-28 = system: SK-MEL-28
DU-145 = system: DU-145

Measured: GI50

Cn1c(N=P(c2ccccc2)(c2ccccc2)c2ccccc2)c([N+](=O)[O-])c(=O)n(C)c1=O
inactive: SF-295 53 µM | PC-3 24.7 µM | HOP-62 48 µM | UACC-257 73.1 µM | COLO 205 44.5 µM | MDA-MB-435 35.2 µM | A498 59.7 µM | MOLT-4 21.2 µM | SNB-75 25.5 µM | SF-268 78.7 µM | SF-539 > 100 µM | MDA-N 34.1 µM | K562 16.2 µM | EKVX 56.2 µM | SK-MEL-2 17.4 µM | RPMI-8226 34 µM | OVCAR-4 41.1 µM

COC1=CCC2=C(CCN(C(=O)C3CC3)C2Cc2ccc(OC)c(O)c2)C1 (configuration not stated)
inactive: SF-295 57.8 µM | PC-3 35.6 µM | HOP-62 61.8 µM | UACC-257 47.9 µM | COLO 205 51.5 µM | MDA-MB-435 23.9 µM | A498 68.5 µM | MOLT-4 8.67 µM | SNB-75 14.9 µM | SF-268 51.1 µM | SF-539 67 µM | SK-MEL-28 31.8 µM | K562 25.8 µM | EKVX 47.1 µM | DU-145 > 100 µM | SK-MEL-2 38.3 µM | RPMI-8226 34.2 µM | OVCAR-4 42.5 µM

CN(C)c1ccc(/C=c2/c3ccccc3n3c2cc(NC(=O)NCCC[N+](C)(C)C)[n+]3C)cc1
inactive: SF-295 53.7 µM | PC-3 > 100 µM | HOP-62 > 100 µM | UACC-257 > 100 µM | COLO 205 > 100 µM | MDA-MB-435 > 100 µM | A498 > 100 µM | MOLT-4 > 100 µM | SF-268 > 100 µM | SF-539 53.1 µM | SK-MEL-28 > 100 µM | K562 40.6 µM | EKVX > 100 µM | DU-145 > 100 µM | SK-MEL-2 > 100 µM | RPMI-8226 22.9 µM | OVCAR-4 22.2 µM

O=C(Nc1cccc2cnccc12)c1cc2c(cc1Cl)Sc1nccn1S2(=O)=O
inactive: SF-295 15.4 µM | PC-3 23.3 µM | HOP-62 14 µM | UACC-257 18.1 µM | COLO 205 15.3 µM | MDA-MB-435 6.76 µM | MOLT-4 12.9 µM | SNB-75 15.5 µM | SF-268 16.2 µM | SF-539 14.6 µM | SK-MEL-28 17.6 µM | MDA-N 7.01 µM | K562 16.2 µM | EKVX 20.7 µM | DU-145 13.6 µM | SK-MEL-2 13.5 µM | RPMI-8226 6.11 µM | OVCAR-4 15.2 µM

S=C(N1CCN(c2cccc(Cl)c2)CC1)N1CCN(c2cccc(Cl)c2)CC1
inactive: SF-295 39.3 µM | PC-3 32.7 µM | HOP-62 36.8 µM | UACC-257 77.3 µM | COLO 205 22 µM | MDA-MB-435 82 µM | MOLT-4 16 µM | SF-268 39.9 µM | SK-MEL-28 42.9 µM | MDA-N > 100 µM | K562 33 µM | EKVX 35 µM | DU-145 30.3 µM | SK-MEL-2 > 100 µM | RPMI-8226 34.6 µM | OVCAR-4 28.9 µM

CC(=O)c1cccc(Nc2nc3ccc(Cl)cc3c3[nH]c4ccccc4c23)c1
inactive: SF-295 2.45 µM | PC-3 5.86 µM | HOP-62 4.17 µM | UACC-257 13.4 µM | COLO 205 2.07 µM | MDA-MB-435 7.26 µM | SF-268 3.99 µM | SF-539 5.28 µM | MDA-N 7.74 µM | K562 1.41 µM | EKVX 3.54 µM | DU-145 4.35 µM | SK-MEL-2 3.36 µM | RPMI-8226 6.95 µM

CC(=O)O[C@H]1C(=O)[C@@]2(C)[C@H]([C@H](OC(=O)c3ccccc3)[C@@]3(O)C[C@H](O)C(C)=C1C3(C)C)[C@]1(OC(C)=O)CO[C@@H]1C[C@@H]2O
inactive: SF-295 37.5 µM | PC-3 28 µM | HOP-62 54 µM | UACC-257 83.6 µM | COLO 205 26.5 µM | MDA-MB-435 11.9 µM | MOLT-4 73.3 µM | SNB-75 11.2 µM | SF-268 83.4 µM | SF-539 32.1 µM | SK-MEL-28 64.9 µM | MDA-N 4.55 µM | K562 55.8 µM | EKVX > 100 µM | DU-145 34.7 µM | SK-MEL-2 46.9 µM | RPMI-8226 13.7 µM | OVCAR-4 > 100 µM

COC(=O)C1=Nc2c(C)nn(-c3ccccc3)c2N=C(c2ccccc2)C1
inactive: SF-295 > 10 µM | PC-3 > 10 µM | HOP-62 > 10 µM | UACC-257 > 10 µM | COLO 205 > 10 µM | MDA-MB-435 > 10 µM | MOLT-4 > 10 µM | SNB-75 > 10 µM | SF-268 > 10 µM | SF-539 > 10 µM | SK-MEL-28 > 10 µM | MDA-N > 10 µM | K562 > 10 µM | DU-145 > 10 µM | RPMI-8226 > 10 µM | OVCAR-4 > 10 µM

CCOC(=O)C(NC(=O)c1ccco1)(Nc1nc2ccc(OCC)cc2s1)C(F)(F)F (configuration not stated)
inactive: SF-295 43.1 µM | PC-3 25.3 µM | UACC-257 28.4 µM | COLO 205 18.5 µM | MDA-MB-435 24.4 µM | MOLT-4 20.1 µM | SNB-75 19.8 µM | SF-268 41.2 µM | SF-539 43.2 µM | SK-MEL-28 97.3 µM | MDA-N 21.6 µM | K562 27.6 µM | EKVX 32.8 µM | DU-145 55.3 µM | SK-MEL-2 32.7 µM | OVCAR-4 30.1 µM

CCN(C(=S)N[C@H](C(=O)N[C@@H](C)C(=O)OC)C(C)C)c1ccccc1
inactive: SF-295 > 100 µM | PC-3 64.9 µM | HOP-62 91.6 µM | UACC-257 44.7 µM | COLO 205 59.6 µM | MDA-MB-435 64 µM | MOLT-4 25.4 µM | SF-539 28 µM | SK-MEL-28 > 100 µM | MDA-N 91.2 µM | K562 22.7 µM | EKVX > 100 µM | DU-145 > 100 µM | SK-MEL-2 > 100 µM | RPMI-8226 63.2 µM | OVCAR-4 > 100 µM

CC(=O)OC1C(Oc2c(C)cc3c(c2O)[C@@H](C)CC[C@@H]3[C@@H](C)CCC=C(C)C)OCC(O)C1O (some centres not stated)
inactive: SF-295 19.4 µM | PC-3 20.3 µM | HOP-62 17.3 µM | UACC-257 18.4 µM | COLO 205 16.6 µM | MDA-MB-435 14.6 µM | A498 20.3 µM | MOLT-4 22.6 µM | SF-268 18.2 µM | SF-539 18.5 µM | MDA-N 21 µM | K562 13.5 µM | DU-145 16.2 µM | SK-MEL-2 25.3 µM

NC(=O)c1csc(C2C=CC(CO)O2)n1 (configuration not stated)
inactive: SF-295 > 10 µM | HOP-62 > 100 µM | UACC-257 > 100 µM | COLO 205 > 100 µM | A498 > 100 µM | MOLT-4 > 100 µM | SF-268 > 100 µM | SF-539 > 100 µM | SK-MEL-28 > 100 µM | K562 > 100 µM | EKVX > 100 µM | SK-MEL-2 > 100 µM | RPMI-8226 > 100 µM | OVCAR-4 > 100 µM

CC1=NN(c2nc(N)nc(CO)n2)C(C)(C)C1
inactive: SF-295 > 100 µM | PC-3 > 100 µM | HOP-62 > 100 µM | UACC-257 > 100 µM | COLO 205 > 100 µM | MDA-MB-435 > 100 µM | A498 > 100 µM | MOLT-4 > 100 µM | SNB-75 > 100 µM | SF-268 > 100 µM | SF-539 > 100 µM | SK-MEL-28 > 100 µM | K562 > 100 µM | EKVX > 100 µM | DU-145 > 100 µM | SK-MEL-2 > 100 µM | RPMI-8226 > 100 µM | OVCAR-4 > 100 µM

N#Cc1c(N)nc(S)c(C#N)c1-c1ccccc1
inactive: SF-295 > 100 µM | PC-3 > 100 µM | HOP-62 > 100 µM | UACC-257 > 100 µM | A498 > 100 µM | MOLT-4 > 100 µM | SNB-75 58.3 µM | SF-268 > 100 µM | SF-539 > 100 µM | SK-MEL-28 > 100 µM | MDA-N > 100 µM | K562 > 100 µM | EKVX > 100 µM | DU-145 > 100 µM | SK-MEL-2 82.4 µM | RPMI-8226 > 100 µM

Cc1cc(=O)oc2c(C)c3oc(CBr)cc3cc12
inactive: SF-295 17.1 µM | PC-3 16.9 µM | HOP-62 16.2 µM | UACC-257 22.8 µM | COLO 205 18.4 µM | MDA-MB-435 18.2 µM | MOLT-4 14.3 µM | SNB-75 22.6 µM | SF-268 19.5 µM | SF-539 20.9 µM | SK-MEL-28 19.8 µM | MDA-N 19.2 µM | K562 19.9 µM | EKVX 26.4 µM | DU-145 33.6 µM | SK-MEL-2 24.5 µM | RPMI-8226 12.2 µM | OVCAR-4 25.8 µM

CO[C@H]1SC[C@H](OC(C)=O)[C@H](OC(C)=O)[C@H]1OC(C)=O
inactive: SF-295 > 100 µM | HOP-62 > 100 µM | UACC-257 > 100 µM | COLO 205 > 100 µM | MDA-MB-435 > 100 µM | MOLT-4 > 100 µM | SF-268 > 100 µM | SF-539 > 100 µM | SK-MEL-28 > 100 µM | MDA-N > 100 µM | K562 > 100 µM | EKVX > 100 µM | DU-145 > 100 µM | SK-MEL-2 > 100 µM | RPMI-8226 > 100 µM | OVCAR-4 > 100 µM
